Experimental findings from ChEMBL document CHEMBL3217728, “Searching for innovative quinolone-like scaffolds: synthesis and biological evaluation of 2,1-benzothiazine 2,2-dioxide derivatives” (2012) are described below.

Calls of active or inactive are those of the source.

Assay [1] has as its system Staphylococcus aureus. Briefly: Potentiation of ciprofloxacin-induced antibacterial effect against wild type Staphylococcus aureus ATCC 25923 at 0.78 to 100 ug/ml by isobologram based checkerboard assay. The class given is functional, organism-based.
Assay [2] concerns the target T1, Quinolone resistance protein NorA (Staphylococcus aureus) (UniProt P0A0J7).
T1 sequence (whole entry): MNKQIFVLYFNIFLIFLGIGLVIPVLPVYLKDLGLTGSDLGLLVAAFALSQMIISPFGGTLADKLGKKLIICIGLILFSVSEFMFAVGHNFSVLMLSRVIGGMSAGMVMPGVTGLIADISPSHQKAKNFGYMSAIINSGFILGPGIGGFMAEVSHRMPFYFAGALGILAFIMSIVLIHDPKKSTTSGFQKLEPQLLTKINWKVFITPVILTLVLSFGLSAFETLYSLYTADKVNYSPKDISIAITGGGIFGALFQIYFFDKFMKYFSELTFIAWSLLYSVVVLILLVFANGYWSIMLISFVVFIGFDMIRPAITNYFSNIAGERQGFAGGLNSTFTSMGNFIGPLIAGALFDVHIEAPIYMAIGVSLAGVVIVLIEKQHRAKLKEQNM
Briefly: Inhibition of NorA efflux pump in norA-overexpressing Staphylococcus aureus SA-K2378 assessed as reduction in ciprofloxacin MIC at 0.78 to 100 ug/ml by isobologram based checkerboard assay.

In assay [3] the test system is Staphylococcus epidermidis. Briefly: Antibacterial activity against Staphylococcus epidermidis ATCC 14990. The assay is classed as functional.
Assay [4] concerns Staphylococcus aureus. Briefly: Antimicrobial activity against wild type Staphylococcus aureus ATCC 25923. The assay is classed as functional.
Assay [5] deals with Enterococcus faecium. Briefly: Antibacterial activity against ciprofloxacin, vancomycin-resistant Enterococcus faecium 26A23. The class given is functional.
For another assay, the system named is Proteus mirabilis. Briefly: Antimicrobial activity against Proteus mirabilis CCUG 26767. The assay is classed as functional.
Assay [6] can be described thus: Inhibition of DNA gyrase (unknown origin) by DNA super coiling assay.
For assay [7], the system named is Staphylococcus aureus. Briefly: Antimicrobial activity against methicillin-sensitive Staphylococcus aureus 21A. The class given is functional.
The target in assay [8] is T1, Quinolone resistance protein NorA (Staphylococcus aureus). Briefly: Inhibition of NorA efflux pump in Staphylococcus aureus SA-1199B assessed as inhibition of EtBr efflux at 50 uM.
A further assay has as its system Escherichia coli. Briefly: Antimicrobial activity against Escherichia coli ATCC 25922. The assay is classed as functional.
The test system of a further assay is Klebsiella pneumoniae. Briefly: Antimicrobial activity against Klebsiella pneumoniae ATCC 13833. The class given is functional.
Assay [9] has as its system Staphylococcus aureus. Briefly: Potentiation of ciprofloxacin-induced antibacterial effect against norA-deficient Staphylococcus aureus SA-K1902 at 0.78 to 100 ug/ml by isobologram based checkerboard assay. The class given is functional, organism-based.
Assay [10] relates to Staphylococcus aureus. Briefly: Antimicrobial activity against ciprofloxacin, methicillin-resistant Staphylococcus aureus 25A. The class given is functional.
Assay [11] has as its target T1, Quinolone resistance protein NorA (Staphylococcus aureus). Briefly: Inhibition of NorA efflux pump in norA-overexpressing Staphylococcus aureus SA-K2378 assessed as reduction in ciprofloxacin MIC at 12.5 ug/ml by isobologram based checkerboard assay.
The test system of another assay is Pseudomonas aeruginosa. Briefly: Antimicrobial activity against Pseudomonas aeruginosa ATCC 27853. The class given is functional.
The subject of the next assay is Enterococcus faecalis. Briefly: Antibacterial activity against vancomycin-resistant Enterococcus faecalis 26A36. The assay is classed as functional.
In assay [12] the test system is Staphylococcus aureus. Briefly: Antimicrobial activity against norA-overexpressing Staphylococcus aureus SA-K2378. The class given is functional.
For assay [13], the system named is Staphylococcus aureus. Briefly: Antimicrobial activity against norA-deficient Staphylococcus aureus SA-K1902. The assay is classed as functional.
The subject of assay [14] is Staphylococcus aureus. Briefly: Antimicrobial activity against Staphylococcus aureus ATCC 25923. The class given is functional.
For assay [15], the system named is Enterococcus faecium. Briefly: Antibacterial activity against Enterococcus faecium ATCC 19433. The class given is functional.
In assay [16] the target is T1, Quinolone resistance protein NorA (Staphylococcus aureus). Briefly: Inhibition of NorA efflux pump in norA-overexpressing Staphylococcus aureus SA-K2378 assessed as reduction in ciprofloxacin MIC at 50 ug/ml by isobologram based checkerboard assay.

For `CC1C(=O)c2cc(N)c(N3CCN(C)CC3)cc2N(C2CC2)S1(=O)=O` (stereo unspecified), the result in the assay with Staphylococcus aureus [1] and in the assay on Staphylococcus aureus [9] was inactive. Moreover, the inhibition entry in assay [2] was “Dose-dependent effect”; in assay [8] it was 27%. The MIC in [3] is above 128 µg/mL; in the assay on Staphylococcus aureus [4], above 100 µg/mL; in the assay with Enterococcus faecium [5], above 128 µg/mL; against Proteus mirabilis it was above 128 µg/mL; against Staphylococcus aureus [7] it was above 128 µg/mL; against Escherichia coli it was above 128 µg/mL. The minimal inhibitory concentration (MIC) in the assay with Klebsiella pneumoniae was above 128 µg/mL; against Staphylococcus aureus [10], above 128 µg/mL; in the assay with Pseudomonas aeruginosa, above 128 µg/mL; in the assay on Enterococcus faecalis, above 128 µg/mL; against Staphylococcus aureus [12], above 100 µg/mL; against Staphylococcus aureus [13], above 100 µg/mL. Besides, the MIC against Staphylococcus aureus [14] and in the assay with Enterococcus faecium [15] was above 128 µg/mL throughout. Besides, in assay [6], the inhibition result was “inactive”. Also, the fold change (FC) in [11] is 4.

Consider `CCOC(=O)C1=C(O)c2cc(N)c(N3CCN(C)CC3)cc2N(C2CC2)S1(=O)=O`, for which the MIC (in assay [3]; in the assay with Enterococcus faecium [5]; against Proteus mirabilis; against Staphylococcus aureus [7]; in the assay on Escherichia coli; in the assay with Klebsiella pneumoniae) was above 128 µg/mL each time. The MIC with Staphylococcus aureus [10], with Pseudomonas aeruginosa, with Enterococcus faecalis, in the assay with Staphylococcus aureus [14] and against Enterococcus faecium [15] was above 128 µg/mL in each case. For the same compound, the inhibition result in assay [6] is “inactive”. In assay [8], the inhibition turned out to be 0%.

`CN1CCN(c2cc3c(cc2N)C(=O)CS(=O)(=O)N3C2CC2)CC1`: the minimal inhibitory concentration (MIC) (in [3]; in the assay on Enterococcus faecium [5]; in the assay on Proteus mirabilis; against Staphylococcus aureus [7]; in the assay with Escherichia coli; against Klebsiella pneumoniae) was above 128 µg/mL throughout. Besides, the MIC against Staphylococcus aureus [10], with Pseudomonas aeruginosa, against Enterococcus faecalis, against Staphylococcus aureus [14] and in the assay with Enterococcus faecium [15] was above 128 µg/mL each time. In assay [6], the inhibition result was “inactive”. For the same compound, the inhibition in [8] was found to be 7%.

`CCOC(=O)C1(C)C(=O)c2cc(N)c(N3CCN(C)CC3)cc2N(C2CC2)S1(=O)=O` (stereo unspecified): the result in the assay with Staphylococcus aureus [1] and in the assay with Staphylococcus aureus [9] was inactive. Besides, the inhibition entry in assay [2] is “Dose-dependent effect”; in [8] it was 25%. In addition, the minimal inhibitory concentration (MIC) in [3] was above 128 µg/mL; against Staphylococcus aureus [4] it was above 100 µg/mL; in the assay with Enterococcus faecium [5], above 128 µg/mL; against Proteus mirabilis, above 128 µg/mL; against Staphylococcus aureus [7] it was above 128 µg/mL; in the assay with Escherichia coli it was above 128 µg/mL. For the same compound, the minimal inhibitory concentration (MIC) in the assay on Klebsiella pneumoniae is above 128 µg/mL; in the assay on Staphylococcus aureus [10], above 128 µg/mL; against Pseudomonas aeruginosa it was above 128 µg/mL; in the assay with Enterococcus faecalis it was above 128 µg/mL; with Staphylococcus aureus [12] it was above 100 µg/mL; against Staphylococcus aureus [13], above 100 µg/mL. The MIC in the assay on Staphylococcus aureus [14] and in the assay with Enterococcus faecium [15] was above 128 µg/mL each time. Besides, the inhibition result in [6] is “inactive”. Further, in [16], the fold change (FC) stood at 4.

On to `Fc1ccc([C@@H]2CCNC[C@H]2COc2ccc3c(c2)OCO3)cc1` [PAROXETINE], for which the result with Staphylococcus aureus [1] and in the assay with Staphylococcus aureus [9] was inactive. Besides, in [2], the inhibition result was “Active”. Moreover, the minimum inhibitory concentration (MIC) in the assay on Staphylococcus aureus [4], in the assay on Staphylococcus aureus [12] and with Staphylococcus aureus [13] was above 100 µg/mL each time.

Turning to `CNC(=O)C1=C(O)c2cc(N)c(N3CCN(C)CC3)cc2N(C2CC2)S1(=O)=O`, the minimum inhibitory concentration (MIC) (in [3]; with Enterococcus faecium [5]; against Proteus mirabilis; against Staphylococcus aureus [7]; in the assay with Escherichia coli; against Klebsiella pneumoniae) was above 128 µg/mL throughout. The minimal inhibitory concentration (MIC) in the assay on Staphylococcus aureus [10], in the assay with Pseudomonas aeruginosa, in the assay with Enterococcus faecalis, against Staphylococcus aureus [14] and in the assay with Enterococcus faecium [15] was above 128 µg/mL in each case. Moreover, the inhibition result in assay [6] was “inactive”. Besides, in [8], the inhibition was determined as 2%.

For the compound `COC(=O)[C@H]1[C@H]2C[C@@H]3c4[nH]c5cc(OC)ccc5c4CCN3C[C@H]2C[C@@H](OC(=O)c2cc(OC)c(OC)c(OC)c2)[C@@H]1OC` [RESERPINE], the outcome in the assay with Staphylococcus aureus [1] and in the assay on Staphylococcus aureus [9] was inactive. Also, in assay [2], the inhibition entry was “Active”. For the same compound, the minimum inhibitory concentration (MIC) against Staphylococcus aureus [4], with Staphylococcus aureus [12] and in the assay on Staphylococcus aureus [13] was above 100 µg/mL in each case.

The term inhibition denotes the relative decrease from the control value, in per cent. A word on the MIC: it is the smallest concentration in the dilution series that meets the test's criterion for growth inhibition. Higher therefore signals a less susceptible organism.
